Measured values as given in patent US5114918A, “Endothelin antagonistic cyclic pentapeptides” (Banyu Pharmaceutical Co., Ltd., priority 1989, dated 1992).
Numbered stars: 1 amine (or outer) side, 2 acyl side, 3 side chain; on linkers, the order of the positions; unused ones are H or OH. Square brackets hold non-standard residues; d marks the D form. Peptide text beside a SMILES is read from it. * marks the point of attachment. X4 = O=C1Nc2ccccc2C1C[C@@H](N[*:1])C(=O)[*:2]; dGly(2-thienyl) = N[C@@H](C(=O)O)c1cccs1; X1 = CC[C@](N[*:1])(C(=O)[*:2])c1cccs1; X7 = O=C([C@H](N[*:1])c1ccco1)[*:2]; Gly(N-cPent) = O=C(O)CNC1CCCC1; NMeM = CN[C@@H](CCSC)C(=O)O; NMeA = CN[C@@H](C)C(=O)O; Nle = CCCC[C@H](N)C(=O)O; Nva = CCC[C@H](N)C(=O)O; Sar = CNCC(=O)O; For = O=C*

Target: T1, endothelin receptor (membrane of smooth muscle tissue of porcine aorta) (Sus scrofa, UniProt Q29010)
T1 construct: from tissue; host or cells: smooth muscle tissue of porcine aorta (membrane fraction)
T1 sequence (Q29010 21-427): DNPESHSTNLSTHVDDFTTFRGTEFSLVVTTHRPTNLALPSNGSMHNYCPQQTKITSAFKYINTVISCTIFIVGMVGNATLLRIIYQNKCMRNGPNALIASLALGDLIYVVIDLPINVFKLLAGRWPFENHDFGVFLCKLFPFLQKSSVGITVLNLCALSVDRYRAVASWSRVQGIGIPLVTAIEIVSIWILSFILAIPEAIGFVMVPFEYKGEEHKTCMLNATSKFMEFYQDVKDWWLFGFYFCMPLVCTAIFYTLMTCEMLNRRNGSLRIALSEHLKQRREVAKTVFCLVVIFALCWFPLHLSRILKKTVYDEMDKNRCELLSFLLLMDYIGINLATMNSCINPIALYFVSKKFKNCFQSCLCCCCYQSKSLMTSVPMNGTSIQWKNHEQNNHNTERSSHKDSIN
Assay: Endothelin binding inhibition test (125I-endothelin-1, porcine aorta smooth muscle membrane)
Conditions: 1.1 μM of the test compound, porcine aorta smooth muscle membrane, 25° C, 4 hours; for inhibition at 1.1 µM: read-out: 125I-endothelin-1 binding inhibition, Inhibition (%)
Procedure: Endothelin binding inhibition test
The smooth muscle tissue of porcine aorta was homogenized in a buffer solution of 10 mM MOPS, pH 7.4, at 4° C. by a polytron. To the homogenate, sucrose was added to a concentration of 20%, and the mixture was centrifuged at 1,000×g for 15 minutes, and the supernatant was further centrifuged at 10,000×g for 15 minutes. The supernatant thereof was further centrifuged at 90,000×g for 40 minutes. The membrane precipitate thereby obtained was suspended in a buffer solution of 5 mM HEPES/Tris, pH 7.4, at a concentration of 25 mg/ml.
Then, 16 μl of this membrane suspension was added to 340 μl of 50 mM Tris/HCl buffer, pH 7.4, containing 10 μM calcium chloride, 10 μM magnesium chloride, 0.1 mM PMSF, 1 μM pepstatin A, 2 μM leupeptin, 1 mM 1,10-phenanthroline and 0.1% bovine serum albumin. To this suspension, 4 μl of (A) endothelin-1 (for nonspecific binding: 0.2 μM as the final concentration), (B) buffer solution A (for total control binding), or (C) a test compound (1.1 μM as the final concentration), was added. Further, to each suspension, 40 μl of ^125 I-endothelin-1 (12000-18000 cpm) was added. These mixtures were incubated at 25° C for 4 hours, then subjected to filtration on a glass filter GF/C and then washed with 5 mM HEPES/Tris, pH 7.4, containing 0.3% bovine serum albumin. Then, the radioactivity trapped by the glass filter was measured, and the ^125 I-endothelin-1 binding inhibition D (%) at 1.1 μM of the test compound was determined by the following equation. [formula] Each test was performed in triplicate.

| Molecule | inhibition at 1.1 µM | 125I-endothelin-1 binding inhibition, Inhibition (%) |
| --- | --- | --- |
| CC(C)C[C@@H]1NC(=O)[C@@H](C(C)C)NC(=O)[C@H](CO)NC(=O)[C@@H](CCC(=O)O)NC(=O)[C@@H](Cc2c[nH]c3ccccc23)NC1=O [Example 1, cyclo(-DTrp-DGlu-Ser-DVal-Leu-)] (cyclo(L[dW][dE]S[dV])) | 19% |  |
| cyclo(-DTrp-DCys(O3 Na)-Pro-DaIle-Leu-) [Example 43] |  | 85% |
| CC(C)C[C@@H]1NC(=O)[C@@H](C(C)C)NC(=O)[C@H](Cc2c[nH]cn2)NC(=O)[C@@H](CC(=O)O)NC(=O)[C@@H](Cc2c[nH]c3ccccc23)NC1=O [Example 18, cyclo(-DTrp-DAsp-His-DVal-Leu-)] (cyclo(H[dV]L[dW][dD])) | 69% |  |
| CC(C)C[C@@H]1NC(=O)[C@@H](C(C)C)NC(=O)[C@H](C)N(C)C(=O)[C@@H](CC(=O)O)NC(=O)[C@@H](Cc2c[nH]c3ccccc23)NC1=O [Example 13, cyclo(-DTrp-DAsp-MeAla-DVal-Leu-)] (cyclo(L[dW][dD][NMeA][dV])) | 85% |  |
| CC(C)C[C@@H]1NC(=O)[C@@H](C(C)C)NC(=O)[C@H](C(C)C)NC(=O)[C@@H](CC(=O)O)NC(=O)[C@@H](Cc2c[nH]c3ccccc23)NC1=O [Example 44, cyclo(-DTrp-DAsp-Val-DVal-Leu-)] (cyclo(L[dW][dD]V[dV])) | 56% |  |
| CC(C)C[C@@H]1NC(=O)[C@@H](C(C)C)NC(=O)[C@H](CCCNC(=N)N)NC(=O)[C@@H](CC(=O)O)NC(=O)[C@@H](Cc2c[nH]c3ccccc23)NC1=O [Example 19, cyclo(-DTrp-DAsp-Arg-DVal-Leu-)] (cyclo(L[dW][dD]R[dV])) | 70% |  |
| CC(C)C[C@@H]1NC(=O)[C@@H](CC(C)C)NC(=O)[C@H](C)NC(=O)[C@@H](CC(=O)O)NC(=O)[C@@H](Cc2c[nH]c3ccccc23)NC1=O [Example 28, cyclo(-DTrp-DAsp-Ala-DLeu-Leu-)] (cyclo(A[dL]L[dW][dD])) | 51% |  |
| CC[C@H](C)[C@@H]1NC(=O)[C@@H](C(C)C)NC(=O)[C@@H]2CCCN2C(=O)[C@@H](CC(=O)O)NC(=O)[C@@H](Cc2c[nH]c3ccccc23)NC1=O [Example 40, cyclo(-DTrp-DAsp-Pro-DVal-Ile-)] (cyclo(I[dW][dD]P[dV])) | 66% |  |
| CC(C)C[C@@H]1NC(=O)[C@@H](C(C)C)NC(=O)[C@@H]2CCCN2C(=O)[C@@H](CCC(=O)O)NC(=O)[C@@H](Cc2c[nH]c3ccccc23)NC1=O [Example 10, cyclo(-DTrp-DGlu-Pro-DVal-Leu-)] (cyclo(L[dW][dE]P[dV])) | 54% |  |
| CC(C)[C@H]1NC(=O)[C@H](C)NC(=O)[C@@H](CC(=O)O)NC(=O)[C@@H](Cc2c[nH]c3ccccc23)NC(=O)[C@@H]2CCCN2C1=O [Example 39, cyclo(-DTrp-DAsp-Ala-DVal-Pro-)] (cyclo(A[dV]P[dW][dD])) | 18% |  |
| CC(C)C[C@@H]1NC(=O)[C@@H](C(C)C)NC(=O)[C@H](C)NC(=O)[C@@H](CCC(=O)O)NC(=O)[C@@H](Cc2c[nH]c3ccccc23)NC1=O [Example 7, cyclo(-DTrp-DGlu-Ala-DVal-Leu-)] (cyclo(A[dV]L[dW][dE])) | 27% |  |

Results, then the molecule that gave them:

| inhibition at 1.1 µM | 125I-endothelin-1 binding inhibition, Inhibition (%) | Molecule |
| --- | --- | --- |
| 67% |  | CC(C)C[C@@H]1NC(=O)[C@@H](C(C)C)NC(=O)[C@H](C)N(C)C(=O)[C@@H](CC(=O)O)NC(=O)[C@@H](CC2C(=O)Nc3ccccc32)NC1=O (stereo partly drawn) [Example 89, cyclo(-DTrp(O)-DAsp-MeAla-DVal-Leu-)] (cyclo(L[X4][dD][NMeA][dV])) |
| 71% |  | CC(C)C[C@@H]1NC(=O)[C@@H](C(C)C)NC(=O)[C@H](Cc2ccccc2)NC(=O)[C@@H](CC(=O)O)NC(=O)[C@@H](Cc2c[nH]c3ccccc23)NC1=O [Example 48, cyclo(-DTrp-DAsp-Phe-DVal-Leu-)] (cyclo(F[dV]L[dW][dD])) |
| 85% |  | CC(C)C[C@@H]1NC(=O)[C@@H](C(C)C)NC(=O)CN(C)C(=O)[C@@H](CC(=O)O)NC(=O)[C@@H](Cc2c[nH]c3ccccc23)NC1=O [Example 65, cyclo(-DTrp-DAsp-Sar-DVal-Leu-)] (cyclo(L[dW][dD][Sar][dV])) |
| 75% |  | CCCC[C@@H]1NC(=O)[C@@H](CC(=O)O)NC(=O)[C@@H](Cc2c[nH]c3ccccc23)NC(=O)[C@H](CC(C)C)NC(=O)[C@@H](C(C)C)NC1=O [Example 46, cyclo(-DTrp-DAsp-Nle-DVal-Leu-)] (cyclo(L[dW][dD][Nle][dV])) |
| 79% |  | CC(C)C[C@@H]1NC(=O)[C@@H](c2cccs2)NC(=O)CN(C)C(=O)[C@@H](CC(=O)O)NC(=O)[C@@H](Cc2c[nH]c3ccccc23)NC1=O [Example 72, cyclo(-DTrp-DAsp-Sar-DThg-Leu-)] (cyclo(L[dW][dD][Sar][dGly(2-thienyl)])) |
| 82% |  | CC(C)C[C@@H]1NC(=O)[C@@H](c2cccs2)NC(=O)[C@@H]2CCCN2C(=O)[C@@H](CC(=O)O)NC(=O)[C@@H](Cc2c[nH]c3ccccc23)NC1=O [Example 67, cyclo(-DTrp-DAsp-Pro-DThg-Leu-)] (cyclo(L[dW][dD]P[dGly(2-thienyl)])) |
|  | 87% | cyclo(-DTrp(CHO)-DCys(O3 Na)-Pro-DThg-Leu-) [Example 75] |
| 65% |  | CCCC[C@@H]1NC(=O)[C@@H](C(C)C)NC(=O)[C@H](CO)NC(=O)[C@@H](CC(=O)O)NC(=O)[C@@H](Cc2cn(C=O)c3ccccc23)NC1=O [Example 54, cyclo(-DTrp(CHO)-DAsp-Ser-DVal-Nle-)] (cyclo([Nle][dW](For)[dD]S[dV])) |
|  | 80% | cyclo(-DTrp-DAsp-Pro-DtertLeu-Leu-) [Example 71] |
| 85% |  | CCC[C@@H]1NC(=O)[C@@H](C(C)C)NC(=O)[C@@H]2CCCN2C(=O)[C@@H](CC(=O)O)NC(=O)[C@@H](Cc2c[nH]c3ccccc23)NC1=O [Example 45, cyclo(-DTrp-DAsp-Pro-DVal-Nva-)] (cyclo([Nva][dW][dD]P[dV])) |
| 85% |  | CSCC[C@H]1C(=O)N[C@H](C(C)C)C(=O)N[C@@H](CC(C)C)C(=O)N[C@H](Cc2c[nH]c3ccccc23)C(=O)N[C@H](CC(=O)O)C(=O)N1C [Example 70, cyclo(-DTrp-DAsp-MeMet-DVal-Leu-)] (cyclo(L[dW][dD][NMeM][dV])) |
|  | 89% | cyclo(-DTrp(CHO)-DAsp-Pro-DaIle-Leu-) [Example 53] |
| 83% |  | CC(C)C[C@@H]1NC(=O)[C@@H](c2ccco2)NC(=O)[C@@H]2CCCN2C(=O)[C@@H](CC(=O)O)NC(=O)[C@@H](Cc2c[nH]c3ccccc23)NC1=O [Example 80, cyclo(-DTrp-DAsp-Pro-DFug-Leu-)] (cyclo(L[dW][dD]P[X7])) |
| 81% |  | CC[C@]1(c2cccs2)NC(=O)[C@@H]2CCCN2C(=O)[C@@H](CC(=O)O)NC(=O)[C@@H](Cc2c[nH]c3ccccc23)NC(=O)[C@H](CC(C)C)NC1=O [Example 82, cyclo(-DTrp-DAsp-Pro-DEtg-Leu-)] (cyclo(L[dW][dD]P[X1])) |
| 85% |  | CC(C)C[C@@H]1NC(=O)[C@@H](c2cccs2)NC(=O)CN(C2CCCC2)C(=O)[C@@H](CC(=O)O)NC(=O)[C@@H](Cc2c[nH]c3ccccc23)NC1=O [Example 73, cyclo(-DTrp-DAsp-CpGly-DThg-Leu-)] (cyclo(L[dW][dD][Gly(N-cPent)][dGly(2-thienyl)])) |
